According to patent US11021481B2, “Substituted isoindolin-1-ones and 2,3-dihydro-1h-pyrrolo[3,4-c]pyridin-1-ones as HPK1 antagonists” (Nimbus Saturn, Inc., priority 2019, dated 2021):

What follows are compounds tested against HPK1 (Homo sapiens (Human), UniProt Q92918) (assay: HPK1 biochemical enzyme assay (microfluidic mobility shift assay)). Details: 1.5 nM HPK1, ATP 1 mM final, 30 min preincubation, 60 min at RT, Caliper EZ Reader; read-out: HPK1 1000UMATP caliper IC50.
Summary of the method: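 Mobility shift readout of HPK1 activity after a 60 min RT reaction with 1 mM ATP, 1 μM substrate and 5 mM MgCl2. Enzyme/substrate mix was first exposed to compounds for 30 min, using ten-point curves topping at 3 μM final.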

Chain of HPK1 (Q92918 whole entry): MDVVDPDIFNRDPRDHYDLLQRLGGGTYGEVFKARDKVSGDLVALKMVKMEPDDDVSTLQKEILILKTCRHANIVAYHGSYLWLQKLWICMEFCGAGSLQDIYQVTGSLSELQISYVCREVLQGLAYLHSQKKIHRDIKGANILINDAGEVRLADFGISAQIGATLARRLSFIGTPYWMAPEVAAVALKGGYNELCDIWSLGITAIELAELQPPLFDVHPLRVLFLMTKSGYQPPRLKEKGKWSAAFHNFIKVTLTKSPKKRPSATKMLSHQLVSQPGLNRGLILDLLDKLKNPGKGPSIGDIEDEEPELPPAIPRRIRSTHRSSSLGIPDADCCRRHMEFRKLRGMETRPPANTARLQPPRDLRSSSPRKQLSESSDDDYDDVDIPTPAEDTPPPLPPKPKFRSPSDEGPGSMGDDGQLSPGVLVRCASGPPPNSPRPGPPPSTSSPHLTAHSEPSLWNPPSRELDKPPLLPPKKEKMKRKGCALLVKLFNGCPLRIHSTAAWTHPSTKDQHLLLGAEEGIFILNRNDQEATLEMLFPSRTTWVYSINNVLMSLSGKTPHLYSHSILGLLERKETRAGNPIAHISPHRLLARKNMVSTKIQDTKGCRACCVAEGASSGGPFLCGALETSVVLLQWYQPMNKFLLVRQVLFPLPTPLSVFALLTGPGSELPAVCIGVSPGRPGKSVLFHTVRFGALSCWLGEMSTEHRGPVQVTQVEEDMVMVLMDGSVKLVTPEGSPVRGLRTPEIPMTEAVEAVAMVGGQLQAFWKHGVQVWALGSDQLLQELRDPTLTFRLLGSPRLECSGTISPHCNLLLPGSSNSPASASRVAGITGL

Row | Compound | IC50
1 | O=C1NCc2c(-c3cnc4cc(F)ccn34)ccc(Nc3ccc(N4CC[C@@H](O)[C@H](F)C4)cn3)c21 [I-399, 7-((5-((3R,4R)-3-fluoro-4-hydroxy-piperidin-1-yl)pyridin-2-yl)amino)-4-(7-fluoroimidazo [1,2-a]pyridin-3-yl)isoindolin-1-one] | < 100 nM
2 | Cc1ccn2c(-c3ccc(Nc4ccc(C5(O)CCOCC5)cn4)c4c3CNC4=O)cnc2c1F [I-587, 4-(8-fluoro-7-methylimidazo [1,2-a]pyridin-3-yl)-7-((5-(4-hydroxytetra-hydro-2H-pyran-4-yl)pyridin-2-yl)amino)isoin-dolin-1-one] | < 100 nM
3 | Cn1ccc2c(-c3ccc(Nc4ccc(N5CCC[C@H](N)C5)cn4)c4c3CNC4=O)ccnc21 [I-94, 7-[[5-[(3S)-3-amino-1-piperipyl]-2-pyridyl]amino]-4-(l-methylpyrrolo [2,3-b]pyridin-4-yl)isoindolin-1-one] | < 100 nM
4 | C[C@H](c1ccc(Nc2ccc(-c3cnc4cc(F)ccn34)c3c2C(=O)NC3)nc1)N1CCOCC1 (single isomer, unassigned) [I-639] | < 100 nM
5 | Cc1cc(-c2ccc(Nc3ccc(N4CCNCC4)cn3)c3c2CNC3=O)c2ccn(C)c2n1 [I-103, 4-(1,6-dimethylpyrrolo [2,3-b]pyridin-4-yl)-7-[(5-piperazin-1-yl-2-pyridyl)amino] isoindolin-1-one] | 100 to 1000 nM
6 | (S)-7-((6- ((dimethylamino)- methyl)-5- (tetrahydrofuran- 3-yl)pyridin- 2-yl)amino)-4- (8-methylimidazo [1,2-a]pyridin- 3-yl)isoindolin- 1-one [I-695] | < 100 nM
7 | O=C1NCc2c(-c3cnc4cc(F)ccn34)ccc(Nc3ccc([C@H]4CCOC4)cn3)c21 [I-218, (R)-4-(7-fluoroimidazo [1,2-a]pyridin-3-yl)-7-((5-(tetrahydrofuran-3-yl)pyridin-2-yl)amino)isoin-dolin-1-one] | < 100 nM
8 | CCN(CC)Cc1nc(Nc2ccc(-c3cnc4cc(F)ccn34)c3c2C(=O)NC3)ccc1[C@@H]1CCOC1 [I-511, (S)-7-((6-((diethylamino)methyl)-5-(tetrahydrofuran-3-yl)pyridin-2-yl)amino)-4-(7-fluoroimidazo [1,2-a]pyridin-3-yl)isoindolin-1-one] | < 100 nM
9 | CN1CCN(c2ccc(Nc3cnc(-c4cnc5n4CCC5)c4c3C(=O)NC4)nc2)CC1 [I-268, 4-(6,7-dihydro-5H-pyrrolo[1,2-a]imidazol-3-yl)-7-((5-(4-methylpiperazin-1-yl)pyridin-2-yl)amino)-2.3-dihydro-1H-pyrrolo[3,4-c]pyridin-1-one] | 100 to 1000 nM
10 | C[C@H]1CCn2ncc(-c3ccc(Nc4ccc(N5CCN(C)CC5)cn4)c4c3CNC4=O)c2C1 [I-264, (S)-4-(5-methyl-4,5,6,7-tetrahydropyra-zolo[1,5-a]pyridin-3-yl)-7-((5-(4-methylpiperazin-1-yl)pyridin-2-yl)amino)isoin-dolin-1-one] | < 100 nM
11 | CN(C)C[C@H]1CN(c2ccc(Nc3ccc(-c4cnc5cc(F)ccn45)c4c3C(=O)NC4)nc2)CCO1 [I-604, (S)-7-((5-(2-((dimethylamino)-methyl)mor pholino)pyridin-2-yl)amino)-4-(7-fluoroimidazo [1,2-a]pyridin-3-yl)isoindolin-1-one] | < 100 nM
12 | CN1CCN(c2ccc(Nc3ccc(-c4ccn5ccnc5c4)c4c3C(=O)NC4)nc2)CC1 [I-35, 4-imidazol[1,2-a]pyridin-7-yl-7-[[5-(4-methylpiperazin-1-yl)-2-pyridyl]amino] isoindolin-1-one] | 100 to 1000 nM
13 | CN(C)CCNC(=O)C(C)(C)c1ccc(Nc2ccc(-c3cnc4cc(F)ccn34)c3c2C(=O)NC3)nc1 [I-227, N-[2-(dimethylami-no)ethyl]-2-[6-[[7-(7-fluoroimidazo [1,2-a]pyridin-3-yl)-3-oxo-isoindolin-4-yl]amino]-3-pyridyl]-2-methyl-propanamide] | < 100 nM
14 | C[C@@H]1CCn2c(-c3ccc(Nc4ccc(N5CCC(O)CC5)cn4)c4c3CNC4=O)cnc2C1 (single isomer, unassigned) [I-302] | 100 to 1000 nM
